Patent US5811078A, “Spray formulations of antihyperalgesic opiates and method of treating topical hyperalgesic conditions therewith” (Adolor Corporation, priority 1997, dated 1998)
Counter-ions that a name gives are not always drawn. Like-named read-outs stand apart in the source and are kept apart here.

Key:
[1] = Peripheral selectivity: ratio of ED50 in the tail-withdrawal assay over ED50 in the anti-diarrheal (castor oil) assay; type: in vivo, female Wistar rats
Source text: The cut off time is 15 seconds. […] After each determination the tail is carefully dried.
Each animal is kept in an individual cage.

[2] = system: central nervous system; details: reported prior use, antidiarrheal formulations, hydrochloride, cited from earlier work

Which “Peripheral Selectivity (ED50tw/ED50 Castor Oil)” value (“Peripheral Selectivity” below) ([1]; po) does the source give for `CCN(C)C(=O)C(CCN1CCC(O)(c2ccc(Cl)cc2)CC1)(c1ccccc1)c1ccccc1` [Compound 2, 4-(p-Chlorophenyl)-4-hydroxy-N-ethyl-N-methyl-ααdiphenyl-1-piperidinebutyramide] here?
The value was ≥ 1,231.

With `CN(C)C(=O)C(CCN1CCC(O)(c2ccc(Br)cc2)CC1)(c1ccccc1)c1ccccc1` [Compound 3, 4-(p-Bromophenyl)-4-hydroxy-N,N-dimethyl-αα-diphenyl-1-piperidinebutyramide] as the compound, how does the “Peripheral Selectivity” value ([1]; po) read?
The value was 800.

With `O=C(N1CCCC1)C(CCN1CCC(O)(c2ccc(Cl)c(Cl)c2)CC1)(c1ccccc1)c1ccccc1` [Compound 4] as the compound, how does the “Peripheral Selectivity” value ([1]; oral, rats, tail withdrawal ED50 over castor oil test ED50 (both mg/kg)) read?
Its value is greater than 640.

Which “Peripheral Selectivity” value ([1]; po) does the source give for `O=C(N1CCCC1)C(CCN1CCC(O)(c2ccc(Cl)cc2)CC1)(c1ccccc1)c1ccccc1` [Compound 5, 1-{4-[(4-Chlorophenyl)4-hydroxy-1-piperidino]-2,2-diphenylbutyryl}pyrrolidine] here?
The value was 593.

For `CN(C)C(=O)C(CCN1CCC(O)(c2ccc(Cl)cc2)CC1)(c1ccccc1)c1ccccc1` [Compound 6, 4-(p-Chlorophenyl)-4-hydroxy-N,N-dimethyl-αα-diphenyl-1-piperidinebutyramide], which “Peripheral Selectivity” value ([1]; po) is on record?
The value was 533.

For `CN(C)C(=O)C(CCN1CCC(O)(c2ccc(F)cc2)CC1)(c1ccccc1)c1ccccc1` [Compound 7, 4-(p-Fluorophenyl)-4-hydroxy-N,N-dimethyl-αα-diphenyl-1-piperidinebutyramide], which “Peripheral Selectivity” value ([1]; po) is on record?
The value was 500.

Which “Peripheral Selectivity” value ([1]; po) does the source give for `CN(C)C(=O)C(CCN1CCC(O)(c2ccc(Cl)c(C(F)(F)F)c2)CC1)(c1ccccc1)c1ccccc1` [Compound 8, 4-(4-Chloro3-trifluoromethyl-phenyl)-4-hydroxy-N,N-dimethyl-αα-diphenyl-1-piperidinebutyramide] here?
The value was 467.

For `O=C(N1CCCC1)C(CCN1CCC(O)(c2ccccc2)CC1)(c1ccccc1)c1ccccc1` [Compound 9, 1-[4-(4-Hydroxy-4phenyl-1piperidino)-2,2-diphenylbutyryl]pyrrolidine], which “Peripheral Selectivity” value ([1]; po) is on record?
Its value is 437.

Which “Peripheral Selectivity” value ([1]; po) does the source give for `O=C(N1CCOCC1)C(CCN1CCC(O)(c2cccc(C(F)(F)F)c2)CC1)(c1ccccc1)c1ccccc1` [Compound 10] here?
The value was greater than 251.

For `CN(C)C(=O)C(CCN1CCC(O)(c2ccc(Cl)cc2)CC1)(c1ccccc1)c1ccccc1` [loperamide, 4-(p-chlorophenyl)-4-hydroxy-N-N-dimethyl-αα-diphenyl-1-piperidinebutyramide hydrochloride], which CNS effects [2] is on record?
Its CNS effects is “devoid of CNS effects”.

And the CNS effects ([2]; listed as Loperamide HCl)?
The CNS effects was “completely free of the undesirable CNS effects”.
